The results in this text go back to patent publication US20260152487A1 (Sitryx Therapeutics Limited, priority 2021, published 2026).

pEC50: −log10 of the molar value.

For the assay, the target named is T1, recombinant human PKM2 (Homo sapiens, UniProt P14618).
T1 construct: His (N); purchased R&D Systems
Put plainly: Human PKM2 activation assay (Kinase-Glo Plus luminescent detection of generated ATP). It counts as biochemical. The conditions noted are these: for Emax: percentage activation normalised to DMSO vehicle (LOW) and 5 μM TEPP-46 (HIGH), read-out: hPKM2 Emax; for pEC50: recombinant human PKM2 activation, 4-parameter logistic fit, read-out: hPKM2 EC50. Summed up: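 Luminescent ATP detection (Kinase-Glo Plus, 15 min, 26 °C) followed a 60 min, 26 °C shaken reaction of compound with […] His-tagged human PKM2, PEP and ADP in imidazole/KCl/MgCl2 buffer with Tween20 and BSA, pH 7.2.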

T1 sequence (P14618 2-531 limits assumed): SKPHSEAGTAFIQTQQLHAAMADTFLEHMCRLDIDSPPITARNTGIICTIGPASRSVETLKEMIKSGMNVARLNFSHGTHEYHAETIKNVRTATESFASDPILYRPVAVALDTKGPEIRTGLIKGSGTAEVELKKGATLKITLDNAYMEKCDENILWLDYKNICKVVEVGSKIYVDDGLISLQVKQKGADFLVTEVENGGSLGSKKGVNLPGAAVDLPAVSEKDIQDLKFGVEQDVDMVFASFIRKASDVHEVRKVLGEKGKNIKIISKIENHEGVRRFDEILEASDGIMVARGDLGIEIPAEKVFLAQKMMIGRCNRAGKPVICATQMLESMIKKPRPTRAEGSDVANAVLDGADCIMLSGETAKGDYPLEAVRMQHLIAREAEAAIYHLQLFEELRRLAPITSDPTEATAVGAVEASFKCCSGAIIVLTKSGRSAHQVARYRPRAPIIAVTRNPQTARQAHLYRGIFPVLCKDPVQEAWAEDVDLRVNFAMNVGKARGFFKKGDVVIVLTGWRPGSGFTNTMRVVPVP

Consider `O=c1c2ccc(S(=O)(=O)c3ccc4ccoc4c3)cc2cnn1Cc1cc[nH]n1` [Example 222, 2-((1H-pyrazol-3-yl)methyl)-6-(benzofuran-6-ylsulfonyl)phthalazin-1(2H)-one], for which the Emax was found to be 115% and the pEC50 is 6.86.

Take `Cc1cc2cc(S(=O)(=O)c3ccc4c(=O)n(Cc5cc[nH]n5)ncc4c3)ccc2o1` [Example 224, 2-((1H-pyrazol-3-yl)methyl)-6-((2-methylbenzofuran-5-yl)sulfonyl)phthalazin-1(2H)-one]: the Emax was 121% and the negative-log EC50 (pEC50) is 7.36.

For `O=c1c2ccc(S(=O)(=O)c3ccc4[nH]ccc4c3)cc2cnn1Cc1cc[nH]n1` [Example 226, 6-((1H-indol-5-yl)sulfonyl)-2-((1H-pyrazol-3-yl)methyl)phthalazin-1(2H)-one], the maximal response (Emax) was 114% and the pEC50 was 6.45.

As to `O=c1c2ccc(S(=O)(=O)c3ccc4sccc4c3)cc2cnn1Cc1cc[nH]n1` [Example 227, 2-((1H-pyrazol-3-yl)methyl)-6-(benzo[b]thiophen-5-ylsulfonyl)phthalazin-1(2H)-one], the maximal response (Emax) is 115% and the pEC50 was 7.45.

`O=c1c2ccc(S(=O)(=O)c3ccc4c(n3)OCCO4)cc2cnn1Cc1cc[nH]n1` [Example 229, 2-((1H-pyrazol-3-yl)methyl)-6-((2,3-dihydro-[1,4]dioxino[2,3-b]pyridin-6-yl)sulfonyl)phthalazin-1(2H)-one]: the maximum response (Emax) is 94.7% and the pEC50 is 7.35.

In the case of `O=c1c2ccc(S(=O)(=O)c3cc4c(cn3)OCCO4)cc2cnn1Cc1cc[nH]n1` [Example 230, 2-((1H-pyrazol-3-yl)methyl)-6-((2,3-dihydro-[1,4]dioxino[2,3-c]pyridin-7-yl)sulfonyl)phthalazin-1(2H)-one], the Emax came to 118% and the pEC50 is 6.74.

In the case of `Cn1ccc2cc(S(=O)(=O)c3ccc4c(=O)n(Cc5cc[nH]n5)ncc4c3)ccc21` [Example 231, 2-((1H-pyrazol-3-yl)methyl)-6-((1-methyl-1H-indol-5-yl)sulfonyl)phthalazin-1(2H)-one], the maximal response (Emax) came to 111% and the negative logarithm of the EC50 (pEC50) is 7.03.

Regarding `O=c1c2ccc(S(=O)(=O)c3cccnc3)cc2cnn1Cc1cc[nH]n1` [Example 233, 2-((1H-pyrazol-3-yl)methyl)-6-(pyridin-3-ylsulfonyl)phthalazin-1(2H)-one], the maximum response (Emax) was determined as 126% and the pEC50 was 6.31.

For the molecule `O=c1c2ccc(S(=O)(=O)c3cnc4c(c3)OCCO4)cc2cnn1Cc1cc[nH]n1` [Example 234, 2-((1H-pyrazol-3-yl)methyl)-6-((2,3-dihydro-[1,4]dioxino[2,3-b]pyridin-7-yl)sulfonyl)phthalazin-1(2H)-one], the Emax amounted to 91.9% and the pEC50 was 6.40.

For the molecule `COc1ccc(S(=O)(=O)c2ccc3c(=O)n(Cc4cc[nH]n4)ncc3c2)cn1` [Example 235, 2-((1H-pyrazol-3-yl)methyl)-6-((6-methoxypyridin-3-yl)sulfonyl)phthalazin-1(2H)-one], the Emax was determined as 114% and the pEC50 was 7.25.

For the molecule `Cn1cc(S(=O)(=O)c2ccc3c(=O)n(Cc4ccn(C5CC5)n4)ncc3c2)cn1` [Example 236, 2-((1-cyclopropyl-1H-pyrazol-3-yl)methyl)-6-((1-methyl-1H-pyrazol-4-yl)sulfonyl)phthalazin-1(2H)-one], the Emax was 116% and the pEC50 is 6.92.

As for `O=c1c2ccc(S(=O)(=O)c3ccn(CCO)n3)cc2cnn1Cc1cccnc1O` [Example 237, 6-(1-(2-hydroxyethyl)-1H-pyrazol-3-ylsulfonyl)-2-((2-hydroxypyridin-3-yl)methyl)phthalazin-1(2H)-one], the maximal response (Emax) came out at 80.7% and the pEC50 is 6.24.

Turning to `Cn1ccc(Cn2ncc3c(F)c(S(=O)(=O)c4ccccc4)ccc3c2=O)n1` [Example 243, 5-fluoro-2-((1-methyl-1H-pyrazol-3-yl)methyl)-6-(phenylsulfonyl)phthalazin-1(2H)-one], the Emax was determined as 109% and the negative-log EC50 (pEC50) is 7.07.

`Cn1ccc(Cn2ncc3cc(S(=O)(=O)c4ccccc4)cc(F)c3c2=O)n1` [Example 245, 8-fluoro-2-((1-methyl-1H-pyrazol-3-yl)methyl)-6-(phenylsulfonyl)phthalazin-1(2H)-one]: the Emax amounted to 103% and the negative-log EC50 (pEC50) was 7.27.

For `O=c1c2cc(NCCO)c(S(=O)(=O)c3ccccc3)cc2cnn1Cc1cccnc1O` [Example 246, 7-((2-hydroxyethyl)amino)-2-((2-hydroxypyridin-3-yl)methyl)-6-(phenylsulfonyl)phthalazin-1(2H)-one], the Emax stood at 96.7% and the negative-log EC50 (pEC50) was 6.58.

Regarding `O=c1c2ccc(S(=O)(=O)c3ccccc3)c(NCCO)c2cnn1Cc1cccnc1O` [Example 247, 5-((2-hydroxyethyl)amino)-2-((2-hydroxypyridin-3-yl)methyl)-6-(phenylsulfonyl)phthalazin-1(2H)-one], the maximal response (Emax) was 103% and the pEC50 was 6.60.

For the molecule `Cn1ccc(Cn2ncc3cc(S(=O)(=O)c4ccccc4)ncc3c2=O)n1` [Example 248, 3-((1-methyl-1H-pyrazol-3-yl)methyl)-7-(phenylsulfonyl)pyrido[3,4-d]pyridazin-4(3H)-one], the maximal effect (Emax) was found to be 103% and the pEC50 is 6.95.

On to `Cn1ccc(Cn2ncc3cc([S+]([O-])c4ccccc4)ncc3c2=O)n1` (stereo not shown) [Example 249, 3-((1-methyl-1H-pyrazol-3-yl)methyl)-7-(phenylsulfinyl)pyrido[3,4-d]pyridazin-4(3H)-one], for which the maximum response (Emax) was found to be 98.1% and the pEC50 was 6.28.

Regarding `Cn1ccc(Cn2ncc3cc(S(=O)(=O)c4ccccc4)cnc3c2=O)n1` [Example 250, 7-((1-methyl-1H-pyrazol-3-yl)methyl)-3-(phenylsulfonyl)pyrido[2,3-d]pyridazin-8(7H)-one], the maximal response (Emax) came out at 92.4% and the negative logarithm of the EC50 (pEC50) is 6.40.

On to `O=c1c2ccc(S(=O)(=O)c3ccncc3)cc2cnn1Cc1cc[nH]n1` [Example 254, 2-((1H-pyrazol-3-yl)methyl)-6-(pyridin-4-ylsulfonyl)phthalazin-1(2H)-one], for which the maximal effect (Emax) stood at 107% and the negative logarithm of the EC50 (pEC50) is 6.30.

Turning to `COc1ccc(S(=O)(=O)c2ccc3c(=O)n(Cc4c(O)ccnc4O)ncc3c2)cc1` [Example 255, 2-((2,4-dihydroxypyridin-3-yl)methyl)-6-(4-methoxyphenylsulfonyl)phthalazin-1(2H)-one], the Emax was determined as 104% and the pEC50 is 6.81.

Take `COc1ccc(S(=O)(=O)c2ccc3c(=O)n(Cc4cc[nH]n4)ncc3c2)nc1` [Example 257, 2-((1H-pyrazol-3-yl)methyl)-6-((5-methoxypyridin-2-yl)sulfonyl)phthalazin-1(2H)-one]: the Emax amounted to 99.3% and the pEC50 was 6.79.

As to `O=c1c2ccc(S(=O)(=O)c3cnccn3)cc2cnn1Cc1cc[nH]n1` [Example 260, 2-((1H-pyrazol-3-yl)methyl)-6-(pyrazin-2-ylsulfonyl)phthalazin-1(2H)-one], the Emax amounted to 113% and the negative logarithm of the EC50 (pEC50) is 6.33.

`O=c1c2ccc(S(=O)(=O)c3ccccc3)cc2cnn1Cc1cnc2ccccn12` [Example 261, 2-(imidazo[1,2-a]pyridin-3-ylmethyl)-6-(phenylsulfonyl)phthalazin-1(2H)-one]: the Emax was 68% and the pEC50 was 6.67.

With `Cn1ccc(Cn2ncc3cc(S(=N)(=O)c4ccccc4)ccc3c2=O)n1` (stereo not shown) [Example 262, 2-((1-methyl-1H-pyrazol-3-yl)methyl)-6-(phenylsulfonimidoyl)phthalazin-1(2H)-one], the Emax was found to be 110% and the negative logarithm of the EC50 (pEC50) is 6.19.

As for `O=c1c2cc(NCCO)c(S(=O)(=O)c3ccccc3)cc2cnn1Cc1cc[nH]n1` [Example 263, 2-((1H-pyrazol-3-yl)methyl)-7-((2-hydroxyethyl)amino)-6-(phenylsulfonyl)phthalazin-1(2H)-one], the maximal response (Emax) is 98% and the negative-log EC50 (pEC50) was 6.76.

Take `Cn1ccc(Cn2ncc3cc(S(=O)(=O)c4cnn(CCO)c4)ccc3c2=O)n1` [Example 264, 6-((1-(2-hydroxyethyl)-1H-pyrazol-4-yl)sulfonyl)-2-((1-methyl-1H-pyrazol-3-yl)methyl)phthalazin-1(2H)-one]: the maximal effect (Emax) was 94.6% and the pEC50 is 6.69.

For `Cn1cc(S(=O)(=O)c2cc3cnn(Cc4cc[nH]n4)c(=O)c3cn2)cn1` [Example 266, 3-((1H-pyrazol-3-yl)methyl)-7-((1-methyl-1H-pyrazol-4-yl)sulfonyl)pyrido[3,4-d]pyridazin-4(3H)-one], the Emax was 92.3% and the pEC50 was 6.72.

Take `Cn1cc(S(=O)(=O)c2cnc3c(=O)n(Cc4cc[nH]n4)ncc3c2)cn1` [Example 267, 7-((1H-pyrazol-3-yl)methyl)-3-((1-methyl-1H-pyrazol-4-yl)sulfonyl)pyrido[2,3-d]pyridazin-8(7H)-one]: the Emax came out at 83.5% and the pEC50 is 6.32.

For the molecule `Cn1cc(S(=O)(=O)c2cc3cnn(Cc4cc[nH]n4)c(=O)c3cc2NCCO)cn1` [Example 268, 2-((1H-pyrazol-3-yl)methyl)-7-((2-hydroxyethyl)amino)-6-((1-methyl-1H-pyrazol-4-yl)sulfonyl)phthalazin-1(2H)-one], the Emax was determined as 102% and the pEC50 is 6.45.

For `Cc1cccc(Cn2ncc3cc(S(=O)(=O)c4cnn(CCO)c4)ccc3c2=O)n1` [Example 269], the Emax turned out to be 103% and the pEC50 is 6.89.

On to `O=c1c2ccc(S(=O)(=O)c3ccccc3)cc2cnn1Cc1ccn(C2COC2)n1` [Example 273, 2-((1-(oxetan-3-yl)-1H-pyrazol-3-yl)methyl)-6-(phenylsulfonyl)phthalazin-1(2H)-one], for which the Emax is 112% and the pEC50 was 6.34.
